Measurements: ChEMBL document CHEMBL3885881, “DrugMatrix”

Species on record: Rattus norvegicus
Experiment: DrugMatrix - Regimen: Daily Repeat
Assay type: toxicity, organism-based, Sprague-Dawley
Parameters: regimen Daily Repeat, gender Male, age 6-8 weeks
Conditions: in vivo, iv, vehicle 100 % SALINE; for ABSOLUTE BASOPHIL / ABSOLUTE EOSINOPHIL / ABSOLUTE LYMPHOCYTE / ABSOLUTE MONOCYTE / ABSOLUTE SEGMENTED NEUTROPHIL / BASOPHIL / EOSINOPHIL / ERYTHROCYTE COUNT / HEMATOCRIT / HEMOGLOBIN / LEUKOCYTE COUNT / LYMPHOCYTE / MEAN CORPUSCULAR HEMOGLOBIN / MEAN CORPUSCULAR HEMOGLOBIN CONCENTRATION / MEAN CORPUSCULAR VOLUME / MONOCYTE / NEUTROPHIL / NUCLEATED RED BLOOD CELLS / PLATELET COUNT: tissue Blood; for ALANINE AMINOTRANSFERASE / ALBUMIN / ALKALINE PHOSPHATASE / ASPARTATE AMINOTRANSFERASE / BLOOD UREA NITROGEN / CARBON DIOXIDE / CHLORIDE / CHOLESTEROL / CREATINE PHOSPHOKINASE / CREATININE / GLUCOSE / LACTATE DEHYDROGENASE / LIPASE / PHOSPHORUS / POTASSIUM / SODIUM / TOTAL BILIRUBIN / TOTAL PROTEIN / URIC ACID: tissue Plasma
[1] = 100 mg/kg, 72 h, dose level Low, time 3 day
[2] = 100 mg/kg, 120 h, dose level Low, time 5 day
[3] = 1000 mg/kg, 72 h, dose level High, time 3 day
[4] = 1000 mg/kg, 120 h, dose level High, time 5 day

OC[C@@H](O)[C@@H](O)[C@H](O)[C@H](O)CO [MANNITOL]
ABSOLUTE BASOPHIL [1]: 0 CELLS/uL | ABSOLUTE EOSINOPHIL [1]: 269 CELLS/uL | ABSOLUTE LYMPHOCYTE [1]: 11772.67 CELLS/uL | ABSOLUTE MONOCYTE [1]: 286.33 CELLS/uL | ABSOLUTE SEGMENTED NEUTROPHIL [1]: 638.67 CELLS/uL | BASOPHIL [1]: 0% | EOSINOPHIL [1]: 2% | ERYTHROCYTE COUNT [1]: 5.91 x10E6/uL | HEMATOCRIT [1]: 37.23% | HEMOGLOBIN [1]: 13.83 G/DL | LEUKOCYTE COUNT [1]: 12.97 x10E3/uL | LYMPHOCYTE [1]: 90.67% | MEAN CORPUSCULAR HEMOGLOBIN [1]: 23.43 pg | MEAN CORPUSCULAR HEMOGLOBIN CONCENTRATION [1]: 37.1 G/DL | MEAN CORPUSCULAR VOLUME [1]: 62.97 fL | MONOCYTE [1]: 2.33% | NEUTROPHIL [1]: 5% | NUCLEATED RED BLOOD CELLS [1]: 0 /100WBC | PLATELET COUNT [1]: 1250.33 x10E3/uL | ALANINE AMINOTRANSFERASE [1]: 48.67 u/L | ALBUMIN [1]: 4.13 G/DL | ALKALINE PHOSPHATASE [1]: 350 u/L | ASPARTATE AMINOTRANSFERASE [1]: 97.33 u/L | BLOOD UREA NITROGEN [1]: 16.33 mg/dL | CARBON DIOXIDE [1]: 24.67 mmol/L | CHLORIDE [1]: 104 MEQ/L | CHOLESTEROL [1]: 77.67 mg/dL | CREATINE PHOSPHOKINASE [1]: 393.67 u/L | CREATININE [1]: 0.2 mg/dL | GLUCOSE [1]: 160.33 mg/dL | LACTATE DEHYDROGENASE [1]: 480.67 u/L | LIPASE [1]: 8.67 u/L | PHOSPHORUS [1]: 13.8 mg/dL | POTASSIUM [1]: 6.9 MEQ/L | SODIUM [1]: 146.1 MEQ/L | TOTAL BILIRUBIN [1]: 0.2 mg/dL | TOTAL PROTEIN [1]: 5.93 G/DL | URIC ACID [1]: 1.7 mg/dL | ABSOLUTE BASOPHIL [2]: 0 CELLS/uL | ABSOLUTE EOSINOPHIL [2]: 0 CELLS/uL | ABSOLUTE LYMPHOCYTE [2]: 12262.33 CELLS/uL | ABSOLUTE MONOCYTE [2]: 402.33 CELLS/uL | ABSOLUTE SEGMENTED NEUTROPHIL [2]: 1202 CELLS/uL | BASOPHIL [2]: 0% | EOSINOPHIL [2]: 0% | ERYTHROCYTE COUNT [2]: 5.62 x10E6/uL | HEMATOCRIT [2]: 34.87% | HEMOGLOBIN [2]: 12.8 G/DL | LEUKOCYTE COUNT [2]: 13.87 x10E3/uL | LYMPHOCYTE [2]: 88.33% | MEAN CORPUSCULAR HEMOGLOBIN [2]: 22.77 pg | MEAN CORPUSCULAR HEMOGLOBIN CONCENTRATION [2]: 36.73 G/DL | MEAN CORPUSCULAR VOLUME [2]: 62 fL | MONOCYTE [2]: 3% | NEUTROPHIL [2]: 8.67% | NUCLEATED RED BLOOD CELLS [2]: 0 /100WBC | PLATELET COUNT [2]: 1182.33 x10E3/uL | ALANINE AMINOTRANSFERASE [2]: 73.33 u/L | ALBUMIN [2]: 4.27 G/DL | ALKALINE PHOSPHATASE [2]: 396 u/L | ASPARTATE AMINOTRANSFERASE [2]: 130.33 u/L | BLOOD UREA NITROGEN [2]: 17.67 mg/dL | CARBON DIOXIDE [2]: 21.67 mmol/L | CHLORIDE [2]: 110.67 MEQ/L | CHOLESTEROL [2]: 83 mg/dL | CREATINE PHOSPHOKINASE [2]: 1094.67 u/L | CREATININE [2]: 0.15 mg/dL | GLUCOSE [2]: 196.33 mg/dL | LACTATE DEHYDROGENASE [2]: 396.67 u/L | LIPASE [2]: 9.67 u/L | PHOSPHORUS [2]: 14.1 mg/dL | POTASSIUM [2]: 6.09 MEQ/L | SODIUM [2]: 148.6 MEQ/L | TOTAL BILIRUBIN [2]: 0.13 mg/dL | TOTAL PROTEIN [2]: 5.73 G/DL | URIC ACID [2]: 2.53 mg/dL | ABSOLUTE BASOPHIL [3]: 0 CELLS/uL | ABSOLUTE EOSINOPHIL [3]: 168 CELLS/uL | ABSOLUTE LYMPHOCYTE [3]: 12528 CELLS/uL | ABSOLUTE MONOCYTE [3]: 421 CELLS/uL | ABSOLUTE SEGMENTED NEUTROPHIL [3]: 916.33 CELLS/uL | BASOPHIL [3]: 0% | EOSINOPHIL [3]: 1.33% | ERYTHROCYTE COUNT [3]: 5.26 x10E6/uL | HEMATOCRIT [3]: 34.8% | HEMOGLOBIN [3]: 13.1 G/DL | LEUKOCYTE COUNT [3]: 14.03 x10E3/uL | LYMPHOCYTE [3]: 89% | MEAN CORPUSCULAR HEMOGLOBIN [3]: 24.9 pg | MEAN CORPUSCULAR HEMOGLOBIN CONCENTRATION [3]: 37.7 G/DL | MEAN CORPUSCULAR VOLUME [3]: 66.13 fL | MONOCYTE [3]: 3% | NEUTROPHIL [3]: 6.67% | NUCLEATED RED BLOOD CELLS [3]: 0 /100WBC | PLATELET COUNT [3]: 1218.33 x10E3/uL | ALANINE AMINOTRANSFERASE [3]: 45 u/L | ALBUMIN [3]: 4.1 G/DL | ALKALINE PHOSPHATASE [3]: 339.33 u/L | ASPARTATE AMINOTRANSFERASE [3]: 74.33 u/L | BLOOD UREA NITROGEN [3]: 14.67 mg/dL | CARBON DIOXIDE [3]: 21.67 mmol/L | CHLORIDE [3]: 105 MEQ/L | CHOLESTEROL [3]: 68.33 mg/dL | CREATINE PHOSPHOKINASE [3]: 402.67 u/L | CREATININE [3]: 0.13 mg/dL | GLUCOSE [3]: 181.67 mg/dL | LACTATE DEHYDROGENASE [3]: 239.67 u/L | LIPASE [3]: 9.33 u/L | PHOSPHORUS [3]: 14.13 mg/dL | POTASSIUM [3]: 6.11 MEQ/L | SODIUM [3]: 145 MEQ/L | TOTAL BILIRUBIN [3]: 0.23 mg/dL | TOTAL PROTEIN [3]: 5.93 G/DL | URIC ACID [3]: 1.77 mg/dL | ABSOLUTE BASOPHIL [4]: 0 CELLS/uL | ABSOLUTE EOSINOPHIL [4]: 45 CELLS/uL | ABSOLUTE LYMPHOCYTE [4]: 12203.33 CELLS/uL | ABSOLUTE MONOCYTE [4]: 139 CELLS/uL | ABSOLUTE SEGMENTED NEUTROPHIL [4]: 779.33 CELLS/uL | BASOPHIL [4]: 0% | EOSINOPHIL [4]: 0.33% | ERYTHROCYTE COUNT [4]: 5.59 x10E6/uL | HEMATOCRIT [4]: 35.07% | HEMOGLOBIN [4]: 13.4 G/DL | LEUKOCYTE COUNT [4]: 13.17 x10E3/uL | LYMPHOCYTE [4]: 92.67% | MEAN CORPUSCULAR HEMOGLOBIN [4]: 23.97 pg | MEAN CORPUSCULAR HEMOGLOBIN CONCENTRATION [4]: 38.27 G/DL | MEAN CORPUSCULAR VOLUME [4]: 62.67 fL | MONOCYTE [4]: 1% | NEUTROPHIL [4]: 6% | NUCLEATED RED BLOOD CELLS [4]: 0 /100WBC | PLATELET COUNT [4]: 1310 x10E3/uL | ALANINE AMINOTRANSFERASE [4]: 39 u/L | ALBUMIN [4]: 4.3 G/DL | ALKALINE PHOSPHATASE [4]: 331.67 u/L | ASPARTATE AMINOTRANSFERASE [4]: 64.67 u/L | BLOOD UREA NITROGEN [4]: 17.33 mg/dL | CARBON DIOXIDE [4]: 25.67 mmol/L | CHLORIDE [4]: 109.67 MEQ/L | CHOLESTEROL [4]: 67.67 mg/dL | CREATINE PHOSPHOKINASE [4]: 165.33 u/L | CREATININE [4]: 0.19 mg/dL | GLUCOSE [4]: 172.33 mg/dL | LACTATE DEHYDROGENASE [4]: 106.33 u/L | LIPASE [4]: 8.67 u/L | PHOSPHORUS [4]: 12.67 mg/dL | POTASSIUM [4]: 6.4 MEQ/L | SODIUM [4]: 148.93 MEQ/L | TOTAL BILIRUBIN [4]: 0.2 mg/dL | TOTAL PROTEIN [4]: 6.3 G/DL | URIC ACID [4]: 1.67 mg/dL
